The values that follow are results of earlier work, collected in patent US10945989B2, “Perinatal treatment with a flavonoid agonist of the TrkB receptor for BDNF rescues neurogenesis and behavior in the Ts65Dn mouse model of DS” (ALMA MATER STUDIORUM—Universita' di Bologna, priority 2017, dated 2021).

For the series, the system named is Ts65Dn mouse model of DS. The following applies: perinatal treatment, Bianchi et al., 2010b; Guidi et al., 2014; cited from earlier work.

For the molecule `CNCCC(Oc1ccc(C(F)(F)F)cc1)c1ccccc1` (stereo not shown) [fluoxetine], the “brain development and cognitive performance” value is “fully restores brain development and cognitive performance”.
